This note sets out measurements from ChEMBL document CHEMBL1148826, “Substituted 6-(1-pyrrolidine)quinolin-2(1H)-ones as novel selective androgen receptor modulators” (J Med Chem, 2007).

The nature of data set [1]: AUC (0 to infinity) in Sprague-Dawley rat at 10 mg/kg, po. The following applies: plasma. Details: time infinity, dose 10 mg/kg, route oral. In kind it is ADME, organism-based.
The nature of data set [2]: Bioavailability in Sprague-Dawley rat at 10 mg/kg, po. Format: ADME, organism-based. The following applies: in vivo.
Data set [3] in a line: Half life in Sprague-Dawley rat at 2.5 mg/kg, iv. In kind it is ADME, organism-based. More on the design: dose 2.5 mg/kg, route intravenous. The following applies: in vivo.
The target in data set [4] is T1, Androgen receptor (Homo sapiens, UniProt P10275).
T1 sequence (P10275 whole entry): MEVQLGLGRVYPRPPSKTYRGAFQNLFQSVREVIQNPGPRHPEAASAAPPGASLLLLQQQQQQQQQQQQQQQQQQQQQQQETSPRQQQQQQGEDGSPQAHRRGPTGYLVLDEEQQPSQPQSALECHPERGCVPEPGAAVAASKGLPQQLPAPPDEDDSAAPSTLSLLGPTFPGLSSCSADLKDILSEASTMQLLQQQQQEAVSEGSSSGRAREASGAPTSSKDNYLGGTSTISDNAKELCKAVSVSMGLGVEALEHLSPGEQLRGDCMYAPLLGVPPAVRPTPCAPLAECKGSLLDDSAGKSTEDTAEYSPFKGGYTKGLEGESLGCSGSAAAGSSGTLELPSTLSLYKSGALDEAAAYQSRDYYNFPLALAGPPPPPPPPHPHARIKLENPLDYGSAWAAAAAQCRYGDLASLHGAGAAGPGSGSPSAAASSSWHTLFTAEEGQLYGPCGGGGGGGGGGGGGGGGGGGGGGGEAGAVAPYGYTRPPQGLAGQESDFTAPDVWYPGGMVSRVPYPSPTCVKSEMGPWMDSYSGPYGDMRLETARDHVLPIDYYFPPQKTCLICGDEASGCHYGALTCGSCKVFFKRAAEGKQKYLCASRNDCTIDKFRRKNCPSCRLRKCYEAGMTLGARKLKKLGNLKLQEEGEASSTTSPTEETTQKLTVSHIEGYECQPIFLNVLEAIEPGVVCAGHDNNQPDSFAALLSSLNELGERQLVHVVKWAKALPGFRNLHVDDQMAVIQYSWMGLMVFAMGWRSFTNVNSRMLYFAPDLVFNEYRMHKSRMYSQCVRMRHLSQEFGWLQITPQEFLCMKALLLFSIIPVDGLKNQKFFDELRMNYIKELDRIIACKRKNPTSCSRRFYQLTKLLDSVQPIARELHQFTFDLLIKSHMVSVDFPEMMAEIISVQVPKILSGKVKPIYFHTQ
Description: Antagonist activity at human androgen receptor by luciferase reporter gene assay

For data set [5], the target named is T1, Androgen receptor. The source holds these as a separate data set.
Description: Binding affinity to human AR
Data set [6] concerns the target T1, Androgen receptor. This is another data set of the same source.
Description: Agonist activity at human androgen receptor by luciferase reporter gene assay
Data set [7] is described as follows: Anabolic effect as increased levator ani muscle weight in orchidectomized rat model at doses > 1 mg/kg. Format: functional, organism-based. Details: dose 1 mg/kg.
In the next data set the target is T2, Glucocorticoid receptor (Homo sapiens, UniProt P04150).
T2 sequence (P04150 whole entry): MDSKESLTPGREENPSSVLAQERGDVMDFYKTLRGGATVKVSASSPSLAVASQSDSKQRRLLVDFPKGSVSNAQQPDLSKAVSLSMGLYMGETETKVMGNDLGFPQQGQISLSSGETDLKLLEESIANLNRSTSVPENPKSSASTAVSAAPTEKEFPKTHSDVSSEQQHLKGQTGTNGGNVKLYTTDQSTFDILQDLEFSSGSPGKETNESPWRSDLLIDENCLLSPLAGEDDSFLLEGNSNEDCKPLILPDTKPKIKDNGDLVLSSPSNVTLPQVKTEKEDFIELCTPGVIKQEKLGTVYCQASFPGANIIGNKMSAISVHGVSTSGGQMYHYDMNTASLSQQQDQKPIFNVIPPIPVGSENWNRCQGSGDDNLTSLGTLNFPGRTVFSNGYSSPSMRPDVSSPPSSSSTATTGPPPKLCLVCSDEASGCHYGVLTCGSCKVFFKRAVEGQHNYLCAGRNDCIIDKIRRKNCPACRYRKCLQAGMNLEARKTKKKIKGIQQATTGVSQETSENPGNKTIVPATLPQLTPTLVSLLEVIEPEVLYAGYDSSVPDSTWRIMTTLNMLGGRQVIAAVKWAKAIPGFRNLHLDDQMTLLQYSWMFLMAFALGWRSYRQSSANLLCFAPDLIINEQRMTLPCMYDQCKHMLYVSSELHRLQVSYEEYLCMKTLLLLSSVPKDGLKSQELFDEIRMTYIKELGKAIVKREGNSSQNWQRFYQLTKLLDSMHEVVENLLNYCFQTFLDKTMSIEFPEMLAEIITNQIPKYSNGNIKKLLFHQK
Description: Binding affinity to GR.

Data set [8] is described as follows: AUC (0 to infinity) in Sprague-Dawley rat at 14.6 mg/kg, po. In kind it is ADME, organism-based. More on the design: time infinity, dose 14.6 mg/kg, route oral. To be noted: plasma.
For another data set, the target named is T3, Progesterone receptor (Homo sapiens, UniProt P06401).
T3 sequence (P06401 whole entry): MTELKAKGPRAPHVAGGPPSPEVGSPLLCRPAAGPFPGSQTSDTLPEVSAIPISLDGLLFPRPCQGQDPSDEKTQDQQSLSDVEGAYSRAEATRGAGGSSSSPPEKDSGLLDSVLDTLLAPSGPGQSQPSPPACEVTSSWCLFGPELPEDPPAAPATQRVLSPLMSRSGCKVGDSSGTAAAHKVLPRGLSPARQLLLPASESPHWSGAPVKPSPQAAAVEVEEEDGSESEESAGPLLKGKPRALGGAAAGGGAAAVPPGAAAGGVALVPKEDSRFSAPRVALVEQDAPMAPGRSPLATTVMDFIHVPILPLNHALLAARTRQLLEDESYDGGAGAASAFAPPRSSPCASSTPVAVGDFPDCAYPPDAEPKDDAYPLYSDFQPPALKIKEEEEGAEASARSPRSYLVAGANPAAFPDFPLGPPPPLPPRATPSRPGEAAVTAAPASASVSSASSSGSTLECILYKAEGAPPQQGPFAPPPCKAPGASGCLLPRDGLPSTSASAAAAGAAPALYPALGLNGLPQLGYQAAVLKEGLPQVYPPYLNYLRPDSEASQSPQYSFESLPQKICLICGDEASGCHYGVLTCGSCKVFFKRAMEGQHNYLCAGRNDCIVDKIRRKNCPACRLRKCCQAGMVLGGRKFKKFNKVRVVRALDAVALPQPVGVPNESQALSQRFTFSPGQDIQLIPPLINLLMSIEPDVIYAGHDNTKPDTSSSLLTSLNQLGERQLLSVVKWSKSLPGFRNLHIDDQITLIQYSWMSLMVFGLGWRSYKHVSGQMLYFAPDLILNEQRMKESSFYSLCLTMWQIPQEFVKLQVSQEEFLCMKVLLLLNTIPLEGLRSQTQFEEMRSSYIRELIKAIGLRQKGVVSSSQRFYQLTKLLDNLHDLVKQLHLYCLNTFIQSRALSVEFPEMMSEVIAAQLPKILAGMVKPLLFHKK
Description: Binding affinity to PR.

For data set [9], the target named is T4, Mineralocorticoid receptor (Homo sapiens, UniProt P08235).
T4 sequence (P08235 whole entry): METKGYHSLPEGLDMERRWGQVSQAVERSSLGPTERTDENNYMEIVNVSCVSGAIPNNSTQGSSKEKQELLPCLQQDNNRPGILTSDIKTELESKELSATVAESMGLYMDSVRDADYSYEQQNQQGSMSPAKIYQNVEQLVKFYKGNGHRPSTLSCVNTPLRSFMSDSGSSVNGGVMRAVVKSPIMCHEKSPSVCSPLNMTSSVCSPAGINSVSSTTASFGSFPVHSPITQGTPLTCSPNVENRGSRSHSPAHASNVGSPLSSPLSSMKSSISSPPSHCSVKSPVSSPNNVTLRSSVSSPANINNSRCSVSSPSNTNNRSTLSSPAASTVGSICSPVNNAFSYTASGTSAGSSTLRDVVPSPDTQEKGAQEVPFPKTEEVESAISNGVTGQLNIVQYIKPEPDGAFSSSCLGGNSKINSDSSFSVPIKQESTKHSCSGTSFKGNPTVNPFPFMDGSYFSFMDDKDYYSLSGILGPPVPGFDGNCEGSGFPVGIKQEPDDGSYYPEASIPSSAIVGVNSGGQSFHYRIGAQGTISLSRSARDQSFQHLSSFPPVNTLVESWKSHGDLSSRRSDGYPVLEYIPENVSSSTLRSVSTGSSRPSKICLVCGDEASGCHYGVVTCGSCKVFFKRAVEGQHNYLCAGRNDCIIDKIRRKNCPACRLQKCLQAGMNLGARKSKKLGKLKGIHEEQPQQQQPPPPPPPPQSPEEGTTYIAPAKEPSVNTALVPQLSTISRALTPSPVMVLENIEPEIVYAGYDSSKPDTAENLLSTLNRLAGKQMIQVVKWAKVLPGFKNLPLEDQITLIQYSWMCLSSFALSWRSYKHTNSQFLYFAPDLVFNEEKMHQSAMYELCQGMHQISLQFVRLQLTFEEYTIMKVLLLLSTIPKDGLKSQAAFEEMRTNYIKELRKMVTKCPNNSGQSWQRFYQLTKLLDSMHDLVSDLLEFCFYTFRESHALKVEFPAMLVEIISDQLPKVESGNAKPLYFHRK
Description: Binding affinity to MR.

Data set [10] can be described thus: Bioavailability in Sprague-Dawley rat at 14.6 mg/kg, po. Format: ADME, organism-based. To be noted: in vivo.
Another data set deals with T5, Estrogen receptor (Homo sapiens, UniProt P03372).
T5 sequence (P03372 whole entry): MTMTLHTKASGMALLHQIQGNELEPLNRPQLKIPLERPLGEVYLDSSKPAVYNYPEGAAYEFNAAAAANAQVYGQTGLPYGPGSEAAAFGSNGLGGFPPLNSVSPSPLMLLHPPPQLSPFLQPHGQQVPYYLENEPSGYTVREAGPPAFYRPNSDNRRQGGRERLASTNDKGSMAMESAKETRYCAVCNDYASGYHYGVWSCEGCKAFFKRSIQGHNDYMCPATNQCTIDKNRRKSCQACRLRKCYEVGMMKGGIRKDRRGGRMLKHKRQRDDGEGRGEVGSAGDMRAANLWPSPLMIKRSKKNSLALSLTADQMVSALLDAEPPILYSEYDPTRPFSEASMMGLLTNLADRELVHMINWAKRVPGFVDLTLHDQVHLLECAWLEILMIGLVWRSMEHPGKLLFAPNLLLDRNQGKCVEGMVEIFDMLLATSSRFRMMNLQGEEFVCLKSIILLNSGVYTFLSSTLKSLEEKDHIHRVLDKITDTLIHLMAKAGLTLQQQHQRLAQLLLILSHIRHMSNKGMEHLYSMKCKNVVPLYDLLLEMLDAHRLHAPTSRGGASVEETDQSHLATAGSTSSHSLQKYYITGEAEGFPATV
Description: Binding affinity to ERalpha.

SMILES strings stand for the structures.

On to `O=c1cc(C(F)(F)F)c2cc(N(CC(F)(F)F)CC(F)(F)F)ccc2[nH]1`, for which, in data set [1], the AUC(0-inf) came to 3150 ng·h/mL. In addition, the bioavailability in data set [2] was 43%. Besides, the half-life in [3] is 1.7 h.
`CC1CCCN1c1ccc2[nH]c(=O)cc(C(F)(F)F)c2c1` (racemic): the half-maximal inhibitory concentration (IC50) on Androgen receptor [4] was greater than 10000 nM. This compound returned an inhibitory constant (Ki) on Androgen receptor [5] of 72 nM.
For `O=c1cc(C(F)(F)F)c2cc(N3CCCC3)ccc2[nH]1`, 25 nM corresponded to half-maximal inhibition at Androgen receptor [4] (IC50). The compound further showed an EC50 at Androgen receptor [6] greater than 10000 nM. Besides, affinity on Androgen receptor [5] was put at a Ki of 1700 nM.
On Androgen receptor [4], `C[C@@H]1CC[C@H]([C@H](O)C(F)(F)F)N1c1ccc2[nH]c(=O)cc(C(F)(F)F)c2c1` showed an IC50 greater than 10000 nM. On Androgen receptor [6], this compound returned an EC50 of 8.4 nM. The compound further showed an inhibition constant Ki at Androgen receptor [5] of 7.6 nM.
The like results for `C[C@@H]1CC[C@H](CO)N1c1ccc2[nH]c(=O)cc(C(F)(F)F)c2c1` were, in that order, greater than 10000 nM, 21 nM and 70 nM.
Take `C[C@@H]1CC[C@H]([C@@H](O)C(F)(F)F)N1c1ccc2[nH]c(=O)cc(C(F)(F)F)c2c1` [LGD-2941]: the Anabolic activity result in data set [7] is reported as “Anabolic”. The IC50 against Androgen receptor [4] was greater than 10000 nM. Moreover, the Ki at Glucocorticoid receptor is 8300 nM; on Progesterone receptor, 2500 nM; in data set [9] it was greater than 10000 nM; at Androgen receptor [5], 1.5 nM; at Estrogen receptor, greater than 10000 nM. The AUC(0-inf) in [8] was found to be 11800 ng·h/mL. Further, the half-life in data set [3] is 2.7 h. It took 7.1 nM to reach a half-maximal effect at Androgen receptor [6] (EC50). This compound came in with a bioavailability in data set [10] of 100%.
`C[C@@H]1CC[C@@H](C)N1c1ccc2[nH]c(=O)cc(C(F)(F)F)c2c1` (racemic): the IC50 at Androgen receptor [4] is greater than 10000 nM. The compound also had a half-maximal effective concentration (EC50) on Androgen receptor [6] of 48 nM. In addition, the affinity on Androgen receptor [5], expressed as Ki, was 43 nM.
For `C[C@@H]1CC[C@H](C)N1c1ccc2[nH]c(=O)cc(C(F)(F)F)c2c1`, the IC50 against Androgen receptor [4] was greater than 10000 nM. The same compound yielded an EC50 on Androgen receptor [6] of 2.6 nM. The inhibition constant (Ki) at Androgen receptor [5] came to 19 nM.
At Androgen receptor [4], `C[C@@H]1CC[C@H](CCl)N1c1ccc2[nH]c(=O)cc(C(F)(F)F)c2c1` gave an IC50 greater than 10000 nM. The compound also returned a half-maximal effective concentration (EC50) at Androgen receptor [6] of 12 nM. On Androgen receptor [5], this compound came in with a Ki of 10 nM.

As usually defined, the AUC(0-inf) is the area under the concentration-time curve extrapolated to infinity. High values mean more exposure, low ones less exposure. In general, bioavailability refers to the share of a dose that reaches the circulation, judged against a reference dose that is usually intravenous. Higher therefore signals much systemic uptake. The half-life is how long it takes for the measured level to halve. Higher therefore signals slow loss. One may read the IC50 as the concentration at which inhibition is half-maximal. A word on the Ki: it is the dissociation constant of the complex between target and ligand, obtained from inhibition or displacement. A low value points to tighter binding. As usually defined, the EC50 is the midpoint of the concentration-response curve. Low values mean a more potent agent, high ones a less potent agent.
